This is an account of results in patent US8895547B2, “Substituted phenyl-oxathiazine derivatives, method for producing them, drugs containing said compounds and the use thereof” (Sanofi, priority 2011, dated 2014).

SMILES strings stand for the structures. pIC50: −log10 of the molar value.

The pIC50 is the negative decadic logarithm of the IC50, by convention in mol/L. High values mean a low IC50, low ones a high IC50.

The target in this experiment is T1, human 11β-HSD1 (Homo sapiens, UniProt P28845).
T1 construct: host or cells: microsome fraction
T1 sequence (P28845 whole entry): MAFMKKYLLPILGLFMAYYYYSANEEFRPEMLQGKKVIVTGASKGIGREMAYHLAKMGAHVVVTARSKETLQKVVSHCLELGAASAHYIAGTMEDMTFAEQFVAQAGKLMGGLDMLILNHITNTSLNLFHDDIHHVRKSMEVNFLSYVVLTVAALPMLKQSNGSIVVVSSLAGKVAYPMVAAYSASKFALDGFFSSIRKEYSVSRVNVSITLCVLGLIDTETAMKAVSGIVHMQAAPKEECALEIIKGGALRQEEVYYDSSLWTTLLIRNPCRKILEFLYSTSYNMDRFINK
Put plainly: Enzymatic 11beta-HSD1 test (SPA-based detection). Format: biochemical. The note with it: human 11β-HSD1 microsome fraction, [1,2-3H]-cortisone, NADPH, 37° C. 1 hour. As for the experimental part: Enzymatic 11beta-HSD1 test:
To measure the activity of the compounds, an SPA-based detection method (Solly et al. 2005) was employed. First of all, 20 μl of the human 11β-HSD1 microsome fraction (0.2 μg of protein), prepared in 50 mM HEPES, 0.1% BSA (w/v), were applied to a plate with 384 wells. The test compounds (0.09 μl) were applied to the assay plate in 100% DMSO. The reaction was started by addition of 20 μl of [1,2-^3H]-cortisone (0.1 μCi/[…]) in assay buffer comprising 25 mM HEPES, 100 mM KCl, 5 mM NaCl, 2 mM MgCl2 and 0.25 mM NADPH. The plate was agitated at 37° C. for 1 hour. At the same time, a stop solution comprising 20 mg/ml SPA-PVT beads, 1.6 mg/ml monoclonal cortisol antibody and 0.01 mM SSR110887 (inhibitor from the Biovitrium patent) in 50 mM HEPES, 1 M NaCl and 1 M KCl was stirred at room temperature. To stop the reaction, 25 μl of the stop solution were added to each well. The plate was agitated gently at room temperature for 1 further hour and then centrifuged at 500 gav for 1 minute, in order that the SPA beads could settle out. The plate was then read in a Wallac-1450-Microbeta unit with a standard SPA program (counting time 1 min/well). The comparative compound was glycyrrhetinic acid.
Protein and radioactive substrate were dispensed with a Biomek FX unit (Beckman Coulter) for handling liquids. The test compounds were added with a Cybi-Well equipped with a 90 nl pin tool (CyBio).
Lit.: Solly S, Mundt S S, Zokian H J, Juy-Fang Ding G, Hermanowski-Vosatka A, Strulovici B and Zheng W. High-throughput screening of 11β-Hydroxysteroid dehydrogenase type 1 in scintillation proximity format. Assay Drug Dev Technol 2005; 3:377-384.

`CC1(C)OC(N[C@@H](CCO)c2ccccc2)=NS(=O)(=O)C1c1ccc(-c2ccccc2)cc1` (stereo partly drawn) [Example 12, (S)-3-(5-Biphenyl-4-yl-6,6-dimethyl-4,4-dioxo-5,6-dihydro-4H-4lambda6-[1,4,3]oxathiazin-2-ylamino)-3-phenyl-propan-1-ol] gave a pIC50 of 7.35.
The result for `CC1(C)OC(N[C@@H](CCO)c2ccccc2)=NS(=O)(=O)C1c1cccc(OCc2ccccc2)c1` (stereo partly drawn) [Example 24, (S)-3-[5-(3-Benzyloxy-phenyl)-6,6-dimethyl-4,4-dioxo-5,6-dihydro-4H-4lambda6-[1,4,3]oxathiazin-2-ylamino]-3-phenyl-propan-1-ol] reads 7.68; that for `CC1(C)OC(N[C@@H](CCO)c2ccccc2F)=NS(=O)(=O)[C@H]1c1ccc(-c2cccc(C(N)=O)c2)cc1` [Example 149, 4′-{(S)-2-[(S)-1-(2-fluorophenyl)-3-hydroxy-propylamino]-6,6-dimethyl-4,4-dioxo-5,6-dihydro-4H-4lambda6-[1,4,3]oxathiazin-5-yl}-biphenyl-3-carboxamide], 8.40.
For `CC1(C)OC(N[C@@H](CCO)c2ccccc2)=NS(=O)(=O)C1(C)c1cccc(Br)c1` (stereo partly drawn) [Example 33, (S)-3-[5-(3-Bromophenyl)-5,6,6-trimethyl-4,4-dioxo-5,6-dihydro-4H-4lambda6-[1,4,3]oxathiazin-2-ylamino]-3-phenyl-propan-1-ol], the pIC50 was 8.10.
The result for `CC1(C)OC(N[C@@H](CCO)c2cccc(F)c2Cl)=NS(=O)(=O)C1c1ccc(-c2ccccc2)cc1` (stereo partly drawn) [Example 96, (S)-3-(5-Biphenyl-4-yl-6,6-dimethyl-4,4-dioxo-5,6-dihydro-4H-4lambda6-[1,4,3]oxathiazin-2-ylamino)-3-(2-chloro-3-fluorophenyl)-propan-1-ol] reads 8.00.
Next, `CC1(C)OC(N[C@@H](CCO)c2ccccc2F)=NS(=O)(=O)C1c1ccc(-c2cccnc2)cc1` (stereo partly drawn) [Example 113, (S)-3-[6,6-Dimethyl-4,4-dioxo-5-(4-pyridin-3-yl-phenyl)-5,6-dihydro-4H-4lambda6-[1,4,3]oxathiazin-2-ylamino]-3-(2-fluorophenyl)-propan-1-ol]: 8.40; `CN1CCN(c2ccc(-c3ccc(C4C(C)(C)OC(N[C@@H](CCO)c5ccccc5F)=NS4(=O)=O)cc3)cn2)CC1` (stereo partly drawn) [Example 145, (S)-3-(6,6-Dimethyl-5-{4-[6-(4-methyl-piperazin-1-yl)-pyridin-3-yl]-phenyl}-4,4-dioxo-5,6-dihydro-4H-4lambda6-[1,4,3]oxathiazin-2-ylamino)-3-(2-fluoro-phenyl)-propan-1-ol]: 8.30; `O=S1(=O)N=C(N[C@@H](CCO)c2ccccc2F)OC2(COC2)C1c1ccc(-c2ccccc2)cc1` (stereo partly drawn) [Example 76, (S)-3-(9-Biphenyl-4-yl-8,8-dioxo-2,5-dioxa-8lambda6-thia-7-aza-spiro[3.5]non-6-en-6-ylamino)-3-(2-fluorophenyl)-propan-1-ol]: 6.48.
Next, `C[C@H](NC1=NS(=O)(=O)C(c2ccc(N3CCN(C)CC3)cc2)C(C)(C)O1)c1ccccc1F` (stereo partly drawn) [Example 170, {6,6-Dimethyl-5-[4-(4-methyl-piperazin-1-yl)-phenyl]-4,4-dioxo-5,6-dihydro-4H-4lambda6-[1,4,3]oxathiazin-2-yl}-[(S)-1-(2-fluorophenyl)-ethyl]-amine]: 6.61.
`CC1(C)OC(N[C@@H](CCO)c2ccccc2F)=NS(=O)(=O)C1(C)c1cccc(N2CCCC2)c1` (stereo partly drawn) [Compound 49, (S)-3-(2-Fluorophenyl)-3-[5,6,6-trimethyl-4,4-dioxo-5-(3-pyrrolidin-1-ylphenyl)-5,6-dihydro-4H-4lambda6-[1,4,3]oxathiazin-2-ylamino]propan-1-ol] gave a negative logarithm of the IC50 (pIC50) of 7.62.
The compound `CC1(C)OC(N[C@@H](CCO)c2ccccc2F)=NS(=O)(=O)[C@@H]1c1ccc(-c2ccc(C(N)=O)cc2)cc1` [Example 147, 4′-{(R)-2-[(S)-1-(2-fluorophenyl)-3-hydroxy-propylamino]-6,6-dimethyl-4,4-dioxo-5,6-dihydro-4H-4lambda6-[1,4,3]oxathiazin-5-yl}-biphenyl-4-carboxamide] gave a pIC50 of 8.05.
Next, `CC1(C)OC(N[C@@H](CCO)c2ccccc2)=NS(=O)(=O)C1c1cccc(-c2cncnc2)c1` (stereo partly drawn) [Example 14, (S)-3-[6,6-Dimethyl-4,4-dioxo-5-(3-pyrimidin-5-yl-phenyl)-5,6-dihydro-4H-4lambda6-[1,4,3]oxathiazin-2-ylamino]-3-phenyl-propan-1-ol]: 7.49.
Next, `Cc1cccc(C2C(C)(C)OC(N[C@@H](CCO)c3ccccc3)=NS2(=O)=O)c1` (stereo partly drawn) [Example 9, (S)-3-(6,6-Dimethyl-4,4-dioxo-5-m-tolyl-5,6-dihydro-4H-4lambda6-[1,4,3]oxathiazin-2-ylamino)-3-phenyl-propan-1-ol]: 7.66; `C[C@H](NC1=NS(=O)(=O)C(c2ccc(-c3ccc4nc(N)sc4c3)cc2)C(C)(C)O1)c1ccccc1F` (stereo partly drawn) [Example 195, 6-(4-{2-[(S)-1-(2-fluorophenyl)-ethylamino]-6,6-dimethyl-4,4-dioxo-5,6-dihydro-4H-4lambda6-[1,4,3]oxathiazin-5-yl}-phenyl)-benzothiazol-2-ylamine]: 7.40.
Next, `CC1(C)OC(N[C@@H](CCO)c2ccccc2)=NS(=O)(=O)C1c1cccc(Cl)c1` (stereo partly drawn) [Example 20, (S)-3-[5-(3-Chloro-phenyl)-6,6-dimethyl-4,4-dioxo-5,6-dihydro-4H-4lambda6-[1,4,3]oxathiazin-2-ylamino]-3-phenyl-propan-1-ol]: 7.68; `CC1(C)OC(N[C@@H](CCO)c2ccccc2F)=NS(=O)(=O)C1c1ccc(-c2cnc(N3CCNCC3)nc2)cc1` (stereo partly drawn) [Example 169, (S)-3-{6,6-Dimethyl-4,4-dioxo-5-[4-(2-piperazin-1-yl-pyrimidin-5-yl)-phenyl]-5,6-dihydro-4H-4lambda6-[1,4,3]oxathiazin-2-ylamino}-3-(2-fluoro-phenyl)-propan-1-ol]: 8.70.
With `CC1(C)OC(N[C@@H](CCO)c2ccccc2F)=NS(=O)(=O)C1c1ccc(-c2cc[nH]n2)cc1` (stereo partly drawn) [Example 128, (S)-3-{6,6-Dimethyl-4,4-dioxo-5-[4-(1H-pyrazol-3-yl)-phenyl]-5,6-dihydro-4H-4lambda6-[1,4,3]oxathiazin-2-ylamino}-3-(2-fluorophenyl)-propan-1-ol], the pIC50 is 8.00.
In turn, `CC1(C)OC(N[C@@H](CCO)c2ccccc2)=NS(=O)(=O)C1(F)c1cccc(Br)c1` (stereo partly drawn) [Example 50, (S)-3-[5-(3-Bromophenyl)-5-fluoro-6,6-dimethyl-4,4-dioxo-5,6-dihydro-4H-4lambda6-[1,4,3]oxathiazin-2-ylamino]-3-phenyl-propan-1-ol] showed a pIC50 of 7.40.
The compound `C[C@H](NC1=NS(=O)(=O)[C@H](c2ccc(-c3ccnc(C#N)c3)cc2)C(C)(C)O1)c1ccccc1F` [Example 187, 4-(4-{(R)-2-[(S)-1-(2-fluorophenyl)-ethylamino]-6,6-dimethyl-4,4-dioxo-5,6-dihydro-4H-4lambda6-[1,4,3]oxathiazin-5-yl}-phenyl)-pyridine-2-carbonitrile] had a pIC50 of 8.30.
`CN1CCN(c2ccc(-c3ccc(C4C(C)(C)OC(N[C@@H](CCO)c5ccccc5F)=NS4(=O)=O)cc3)cc2)CC1` (stereo partly drawn) [Example 114] gave a pIC50 of 8.10.
In turn, `C[C@H](NC1=NS(=O)(=O)C(c2ccc(-c3cccc(C(N)=O)c3)cc2)C(C)(C)O1)c1ccccc1F` (stereo partly drawn) [Example 156, 4′-{2-[(S)-1-(2-fluorophenyl)-ethylamino]-6,6-dimethyl-4,4-dioxo-5,6-dihydro-4H-4lambda6-[1,4,3]oxathiazin-5-yl}-biphenyl-3-carboxamide] gave a pIC50 of 7.92.
Next, `C[C@H](NC1=NS(=O)(=O)C(c2ccc(-c3ccnc(C#N)c3)nc2)C(C)(C)O1)c1ccccc1F` (stereo partly drawn) [Example 191, 5-{2-[(S)-1-(2-fluorophenyl)-ethylamino]-6,6-dimethyl-4,4-dioxo-5,6-dihydro-4H-4lambda6-[1,4,3]oxathiazin-5-yl}-[2,4′]bipyridinyl-2′-carbonitril]: 6.34; `COc1cccc(C2C(C)(C)OC(N[C@@H](CCO)c3ccccc3)=NS2(=O)=O)c1` (stereo partly drawn) [Example 37, (S)-3-[5-(3-Methoxy-phenyl)-6,6-dimethyl-4,4-dioxo-5,6-dihydro-4H-4lambda6-[1,4,3]oxathiazin-2-ylamino]-3-phenyl-propan-1-ol]: 7.89.
The compound `CC1(C)OC(N[C@@H](CCO)c2ccccc2F)=NS(=O)(=O)[C@H]1c1ccc(-c2ccnc(C(N)=O)c2)cc1` [Example 188, 4-(4-{(S)-2-[(S)-1-(2-fluorophenyl)-3-hydroxy-propylamino]-6,6-dimethyl-4,4-dioxo-5,6-dihydro-4H-4lambda6-[1,4,3]oxathiazin-5-yl}-phenyl)-pyridine-2-carboxamide] showed a pIC50 of 8.15.
